Assay results as given in patent US20250189537A1, “MULTI-FLUORESCENCE MICROFLUIDIC PLATFORM FOR EVALUATING RISKS OF SHEAR-DRIVEN ARTERIAL THROMBOSIS AND FAST ANTITHROMBOTIC DRUG SCREENING” (Board of Regents, The University of Texas System, priority 2023, published 2025).
Where a name gives a salt, the structure may show the parent alone.

Columns and labels:
[1] = tested on: ADP or collagen-induced platelet aggregation; conditions: at much lower concentrations; cited from earlier work
[2] = tested on: biomechanical platelet aggregation; assay: Microfluidic stenosis assay (thrombus size, single fluorescence imaging); type: cell-based, human; conditions: for inhibition to the biomechanical thrombogenesis: separately and combined at twice or 20 times of human plasmatic concentrations; for thrombus formation: replacing heparin for anticoagulation
Description: Microfluidic devices with single-hump stenosis microchannels can be coated with VWF monomer solution. Heparin added whole blood is incubated with DiOC6 (3), or with a set of predetermined sensors. As used herein, a sensor is a compound or protein (e.g., antibody) that specifically binds a selected molecule, peptide, or protein present in a thrombus, the sensor can optionally include a detectable tag. A detectable tag can include but is not limited to a fluorescent tag. In certain aspects a first sensor set (Sensor Set 1) can include one or more of SZ22-FITC, Fg-Alexa Fluor® 405, 2.2.9-Alexa Fluor® 555 and AK4-Alexa Fluor® 647. In certain aspects a second sensor set (Sensor Set 2) can include SZ22-FITC, Annexin V-Pacific Blue, MBC 370.2-Alexa Fluor® 555 and PAC-1-Alexa Fluor® 647. A thrombogenic sample, e.g., blood, can be introduced via a reservoir at a microchannel inlet and perfused through the microchannel at a predetermined flow rate. In certain aspects the sample is moved through the microchannel using a pump withdraw mode via a syringe or similar apparatus connected to a microchannel outlet. The microchannel at the site of stenosis can be recorded in real time with multi-fluorescence imaging using appropriate equipment. In certain aspects the multi-fluorescence imaging is performed with a LED5 fluorescence light source and a multi-pass filter (excitation-emission: 391/32-435/30, 479/33-519/25, 554/24-594/32 and 638/31-695/58 nm). Autofluorescence of platelets can be detected in the 391/32-435/30 nm channel (Lohmann and Lohmann, Biochemical and biophysical research communications 152, 1410-1415, 1988), the signal intensity of which can be subtracted when calculating signals from other sensors.
Thrombus profiling assay: development and validation. Each microfluidic chip is composed of 10 rectangular (width×height: 200 μm×50 μm) channels with respective inlets and outlets for tubing connection (FIG. 1A, 1B). A pump drives a syringe to perfuse heparinized blood (0.5 mL) through the channel pre-coated with VWF. An 80% stenosis site stimulates biomechanical thrombogenesis (FIG. 1C). A perfusion rate of 18 μL min^−1 was selected, which creates a wall shear stress (WSS) of 857 dyn cm^−2 at the stenosis site according to fluid dynamics simulation (FIG. 1D). The same stenosis site WSS is achieved by an inlet wall shear rate of 1485 s-1 in a circular vessel with the same cross-sectional area, mimicking human arterioles (Yakusheva et al. Blood advances 6, 4834-46), human arteries during systole, and mouse arteries (Panteleev et al., Journal of thrombosis and haemostasis JTH 19, 588-95). The calculated Reynolds numbers in channels of different shapes are also within the same scale. […]

[3] = phase III trials; cited from earlier work

## COC(=O)[C@H](c1ccccc1Cl)N1CCc2sccc2C1 [clopidogrel]
[1]
  inhibition of ADP or collagen-induced platelet aggregation: significantly inhibit
[2]
  inhibition to the biomechanical thrombogenesis: negligible inhibition

## O=C(O)CN(CCN(CC(=O)O)CC(=O)O)CC(=O)O [EDTA, ethylenediaminetetraacetic acid]
[2]
  thrombus formation: attenuated

## CCOC(=O)CCNC(=O)N[C@H]1CCN(c2ccc(C(=N)N)cc2)C1=O [orbofiban]
[3]
  patient mortality vs placebo: significantly increased

## CC(=O)Oc1ccccc1C(=O)O [aspirin]
[1]
  inhibition of ADP or collagen-induced platelet aggregation: significantly inhibit
[2]
  inhibition to the biomechanical thrombogenesis: negligible inhibition

## O=C(O)CC(O)(CC(=O)O)C(=O)O [citrate, sodium citrate]
[2]
  thrombus formation: attenuated
